Test results reported in US9441016B2, “Complete genome sequence of the methanogen Methanobrevibacter ruminantium” (Pastoral Greenhouse Gas Research Ltd., priority 2009, dated 2016).

What was measured:
[1] = system: M. ruminantium M1; assay: Effect of the lytic enzyme PeiR on M1 growth in vitro (culture density, methane); assay type: cell-based, Methanobrevibacter ruminantium
Procedure: M1 was grown in medium RM02 in anaerobic culture tubes (16 mm internal diameter, 18 mm outer diameter, 150 mm long; Bellco Glass, Vineland, N.J., USA), essentially as described by Balch and Wolfe, 1976. The mineral salts base of RM02 contained (per liter of medium): 1.4 g of KH2PO4, 0.6 g of (NH4)2SO4, 1.5 g of KCl, 1 ml trace element solution […] et al., 1983), 1 ml of selenite/tungstate solution ([…] and […], 1984) and 4 drops of 0.1% (w/v) resazurin solution. This solution was mixed and then boiled under O2-free 100% CO2, before being cooled in an ice bath while it was bubbled with 100% CO2. Once the medium was cool, 4.2 g of NaHCO3 and 0.5 g of L-cysteine.HCl.H2O was added per liter. […] In the experiments testing the effects of PeiR addition, the culture densities were mathematically normalised to an OD600 of 0.1 at the time the additions were made, and all other readings corrected by the same ratio. […] Methane was measured by gas chromatography, taking a 0.3 ml sample from the culture headspace, at the pressure in the culture tube, and injecting it into an Aerograph 660 (Varian Associates, Palo Alto, Calif., USA) fitted with a Porapak Q 80/100 mesh column (Waters Corporation, Milford, Mass., USA) and a thermal conductivity detector operated at 100° C. […]

[2] = system: Mbb. ruminantium A1Ao ATP synthase; assay: ATP hydrolysis by A1Ao ATP synthase with inhibitors (inorganic phosphate assay); assay type: biochemical, Methanobrevibacter ruminantium; conditions: in high concentrations
Source text: Two enzyme preparations were studied. Purified ATP synthase from BL21 and recombinant enzyme expressed in E. coli DK8 membranes. Purified […] ATP synthase was examined for ATPase activity using the inorganic phosphate assay. […] TBT is a well characterized Fo and Ao channel inhibitor of ATP synthases. To examine the coupling ion used by the Mbb. ruminantium […] ATP synthase, the effect of amiloride, a known Na^+-coupled V-type ATPase and Na^+ channel inhibitor was also examined. […] E. coli DK8 (Δatp) inverted membranes containing the recombinant […]-ATPase were used to determine the effects of the inhibitors TBT (200 μM) and DCCD (250 μM) at different pH values. ATPase activity was measured in presence of 130 mM Na^+ (FIG. 30A) and in absence of Na^+ (FIG. 30B). After preincubation with the inhibitor for 20 min at room temperature ([…]), the reaction was started at 39° C. by addition of Na2-ATP or Tris-ATP to a final concentration of 2.5 mM. 0.5 mg inverted membrane vesicles was used in each end-point assay. […] FIGS. 30A and 30B). […] FIG. 30C). Amiloride inhibition of ATP hydrolysis of the Mbb. ruminantium […] ATP synthase was evaluated next. […] FIG. 30D). […] FIG. 31A). Amiloride inhibition of ATP hydrolysis of purified recombinant Mbb. ruminantium […] ATP synthase was further tested in DK8 and native membranes. […] FIG. 31B).

[3] = target: 3-hydroxy-3-methylglutaryl-CoA reductase (HMGR) (Methanobrevibacter ruminantium, UniProt D3E332); assay: HMGR activity assay measuring oxidation of NADPH; assay type: biochemical; conditions: for Km: substrate of HMGR, assays at 37° C, pH 6.5
[4] = system: M. ruminantium M1; assay: Stimulation of growth of M1 by alcohols; assay type: cell-based, Methanobrevibacter ruminantium; conditions: for culture density (OD600 nm): M1 grown on H2, compared to H2 alone
Procedure: M1 was grown in medium RM02 in anaerobic culture tubes (16 mm internal diameter, 18 mm outer diameter, 150 mm long; Bellco Glass, Vineland, N.J., USA), essentially as described by Balch and Wolfe, 1976. The mineral salts base of RM02 contained (per liter of medium): 1.4 g of KH2PO4, 0.6 g of (NH4)2SO4, 1.5 g of KCl, 1 ml trace element solution […] et al., 1983), 1 ml of selenite/tungstate solution ([…] and […], 1984) and 4 drops of 0.1% (w/v) resazurin solution. This solution was mixed and then boiled under O2-free 100% CO2, before being cooled in an ice bath while it was bubbled with 100% CO2. Once the medium was cool, 4.2 g of NaHCO3 and 0.5 g of L-cysteine.HCl.H2O was added per liter. The medium was dispensed into the culture tubes while being gassed with 100% CO2, at 9.5 ml of medium per tube, and the tubes sealed with blue butyl septum stoppers and aluminium seals (Bellco), with a headspace of 100% CO2. These tubes were sterilised by autoclaving for 20 min at 121° C. Before use, the tubes were stored in the dark for at least 24 h. Sodium acetate (20 mM final conc.), sodium formate (60 mM final conc.), coenzyme M (10 μM final conc.), and vitamin-supplemented clarified rumen fluid were added to sterile media, before inoculation with 0.5 ml of an actively growing culture of M. ruminantium, then gassed with H2 plus CO2 (4:1) to 180 kPa overpressure. In some experiments, the formate was omitted, and alcohols were added, as noted in the experimental descriptions accompanying the results. The culture tubes were incubated on their sides, at 39° C. in the dark, on a platform shaken at 200 rpm. Growth of M1 was followed by measuring the culture density at 600 nm by inserting the tubes directly into an Ultrospec 1100 pro UV/Vis spectrophotometer (Amersham Biosciences, Little Chalfont, Buckinghamshire, UK). […] In the experiments testing the effects of PeiR addition, the culture densities were mathematically normalised to an OD600 of 0.1 at the time the additions were made, and all other readings corrected by the same ratio. This was done to remove the effect of lack of absolute synchronicity between cultures, a common phenomenon when culturing methanogens. This normalisation was not done for experiments testing the utilisation of alcohols. Methane was measured by gas chromatography, taking a 0.3 ml sample from the culture headspace, at the pressure in the culture tube, and injecting it into an Aerograph 660 (Varian Associates, Palo Alto, Calif., USA) fitted with a Porapak Q 80/100 mesh column (Waters Corporation, Milford, Mass., USA) and a thermal conductivity detector operated at 100° C. The column was operated at room temperature with N2 as the carrier gas at 12 cm^3/min.

ClC(Cl)Cl [Chloroform]
methane yield ([1]; 0.1 ml added to 10 ml culture at mid-exponential phase): similarly reduced methane yield | culture density ([1]; 0.1 ml added to 10 ml culture, compared with PeiR): decrease in culture density was less

C(=NC1CCCCC1)=NC1CCCCC1 [DCCD]
ATP hydrolysis activity, sensitivity to inhibitor [2]: sensitive

CC(C)(CO[P@@](=O)(O)O[P@@](=O)(O)OC[C@H]1O[C@@H](n2cnc3c(N)ncnc32)[C@H](O)[C@@H]1OP(=O)(O)O)[C@@H](O)C(=O)NCCC(=O)NCCSC(=O)C[C@@](C)(O)CC(=O)O [HMG-CoA]
Km [3]: 12.4 ± 1.83 µM

NC(=O)C1=CN([C@@H]2O[C@H](COP(=O)(O)OP(=O)(O)OC[C@H]3O[C@@H](n4cnc5c(N)ncnc54)[C@H](OP(=O)(O)O)[C@@H]3O)[C@@H](O)[C@H]2O)C=CC1 [NADPH]
Km [3]: 165 ± 35 µM

CCC[CH2][Sn]([CH2]CCC)[CH2]CCC [TBT, tributylin]
ATP hydrolysis activity, sensitivity to inhibitor [2]: sensitive

N=C(N)NC(=O)c1nc(Cl)c(N)nc1N [amiloride]
ATP hydrolysis activity, sensitivity to inhibitor [2]: sensitive

CCO [ethanol]
growth ([4]; 20 mM, M1 grown on H2): some inhibition of growth | culture density (OD600 nm) ([4]; 5 or 10 mM): increase in culture density | growth ([4]; no H2 added): No growth occurred | methane formation ([4]; no H2 added): no methane was formed

CC(C)O [isopropanol]
stimulation of growth ([4]; 5 to 20 mM, M1 grown on H2): no stimulation | growth ([4]; no H2 added): No growth occurred | methane formation ([4]; no H2 added): no methane was formed

CC[C@H](C)C(=O)O[C@H]1C[C@@H](C)C=C2C=C[C@H](C)[C@H](CC[C@@H]3C[C@@H](O)CC(=O)O3)[C@H]21 [lovastatin, reference compound]
Ki [3]: 8.5 ± 1.1 µM

CO [methanol]
culture density (OD600 nm) ([4]; 20 mM): increase in culture density | growth ([4]; no H2 added): No growth occurred | methane formation ([4]; no H2 added): no methane was formed

CCC(C)(C)C(=O)O[C@H]1C[C@@H](C)C=C2C=C[C@H](C)[C@H](CC[C@@H]3C[C@@H](O)CC(=O)O3)[C@H]21 [simvastatin, reference compound]
Ki [3]: 3.7 ± 0.65 µM
